The target in test [1] is T1, Heat shock factor protein 1 (Mus musculus, UniProt P38532).
T1 sequence (P38532 whole entry): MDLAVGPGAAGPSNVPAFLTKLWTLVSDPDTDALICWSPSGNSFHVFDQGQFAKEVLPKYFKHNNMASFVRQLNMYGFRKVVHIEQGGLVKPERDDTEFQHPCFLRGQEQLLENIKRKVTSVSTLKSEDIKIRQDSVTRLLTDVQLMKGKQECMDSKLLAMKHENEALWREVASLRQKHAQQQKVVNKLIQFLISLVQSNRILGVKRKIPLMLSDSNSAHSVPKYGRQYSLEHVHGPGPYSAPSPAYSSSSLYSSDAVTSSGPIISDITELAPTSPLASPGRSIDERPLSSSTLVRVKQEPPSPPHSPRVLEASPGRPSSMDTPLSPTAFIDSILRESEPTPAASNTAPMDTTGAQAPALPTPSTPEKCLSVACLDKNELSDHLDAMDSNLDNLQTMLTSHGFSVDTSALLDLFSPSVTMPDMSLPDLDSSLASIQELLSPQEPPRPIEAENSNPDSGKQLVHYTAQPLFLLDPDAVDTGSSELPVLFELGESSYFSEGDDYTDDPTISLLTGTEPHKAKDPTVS
Briefly: decrease of HSF1-responsive luciferase luminescence – cell-based, NIH3T3, dose retest, confirmation (AID 2382).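 Also: NIH3T3 fibroblasts with HSF1-driven luciferase reporter stressed by proteasome inhibitor MG132; luminescence from HSF1-driven luciferase expression after 8 hours of MG132 stress.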 In kind it is functional.

For test [2], the system named is Streptococcus. The experiment in a line: GAS UMAA2166 growth inhibition – luminescence, BacTiterGlo, counter-screen for streptokinase expression inhibitor project, dose response (AID 1915).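 Also: potency for reduction of bacterial viability or growth.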 It counts as functional, organism-based.
For test [3], the target named is T2, Streptokinase A (Streptococcus pyogenes serotype M1, UniProt P10520).
T2 sequence (P10520 whole entry): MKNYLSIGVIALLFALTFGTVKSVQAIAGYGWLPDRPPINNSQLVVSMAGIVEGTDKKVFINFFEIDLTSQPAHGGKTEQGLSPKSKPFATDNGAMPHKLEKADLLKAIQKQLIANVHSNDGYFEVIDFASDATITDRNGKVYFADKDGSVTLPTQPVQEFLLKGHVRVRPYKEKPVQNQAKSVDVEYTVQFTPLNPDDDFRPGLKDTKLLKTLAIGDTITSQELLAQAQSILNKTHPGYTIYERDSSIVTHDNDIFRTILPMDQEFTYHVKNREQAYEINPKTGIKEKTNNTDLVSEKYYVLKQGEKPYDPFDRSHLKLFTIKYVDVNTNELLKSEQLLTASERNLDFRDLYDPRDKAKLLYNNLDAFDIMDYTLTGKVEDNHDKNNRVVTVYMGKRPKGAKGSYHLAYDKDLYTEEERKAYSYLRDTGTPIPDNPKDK
Briefly: viability-normalized secreted streptokinase activity reduction – plasminogen activation absorbance, OD405, dose response (AID 1914).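 Also: secreted streptokinase activity via plasminogen activation per viability signal from cell pellet.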 It counts as functional, Streptococcus pyogenes M1 GAS.

Test [4] deals with Streptococcus sp. 'group A'. Briefly: Streptococcus pyogenes SK(-)GAS viability under kanamycin – luminescence, BacTiterGlo, confirmation, counter-screen for streptokinase expression inhibitor project, dose response (AID 1900). It counts as functional, organism-based. (The purpose of a counterscreen is to sort out artefacts and off-target activity.)
Test [5] is described as follows: viability of uninfected HEp-2 cells – cell-based, HTS, cytotoxicity control for RSV inhibitor project, dose response (AID 2410). In kind it is functional. The following applies: human respiratory syncytial virus.
Test [6] has as its target Cytochrome P450 2C19 (Homo sapiens, UniProt P33261). The experiment in a line: Cytochrome panel assay with activity outcomes. Panel member name: p450-cyp2c19 Compounds with AC50 equal or less than 10 uM are considered active. In kind it is functional. As to conditions: read-out: AC50.
In test [7] the target is Cytochrome P450 2C9 (Homo sapiens, UniProt P11712).
Sequence of Cytochrome P450 2C9 (P11712 whole entry): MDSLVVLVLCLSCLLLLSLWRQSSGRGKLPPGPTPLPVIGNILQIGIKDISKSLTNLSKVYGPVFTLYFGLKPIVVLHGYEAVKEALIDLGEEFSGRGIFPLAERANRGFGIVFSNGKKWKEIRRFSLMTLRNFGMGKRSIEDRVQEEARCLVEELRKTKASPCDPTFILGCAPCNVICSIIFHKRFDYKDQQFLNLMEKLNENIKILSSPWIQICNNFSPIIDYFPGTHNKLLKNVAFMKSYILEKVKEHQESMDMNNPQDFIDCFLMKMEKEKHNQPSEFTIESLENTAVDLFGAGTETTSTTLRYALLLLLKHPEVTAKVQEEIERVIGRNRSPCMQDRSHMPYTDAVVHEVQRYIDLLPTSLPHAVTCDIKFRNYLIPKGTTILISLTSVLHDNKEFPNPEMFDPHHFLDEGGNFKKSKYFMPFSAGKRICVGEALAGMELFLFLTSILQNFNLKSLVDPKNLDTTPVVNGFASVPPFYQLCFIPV
Test [8] has as its target T3, Cytochrome P450 1A2 (Homo sapiens, UniProt P05177).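 Also: PubChem cytochrome P450 panel assay, CYP1A2 panel member.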
T3 sequence (P05177 whole entry): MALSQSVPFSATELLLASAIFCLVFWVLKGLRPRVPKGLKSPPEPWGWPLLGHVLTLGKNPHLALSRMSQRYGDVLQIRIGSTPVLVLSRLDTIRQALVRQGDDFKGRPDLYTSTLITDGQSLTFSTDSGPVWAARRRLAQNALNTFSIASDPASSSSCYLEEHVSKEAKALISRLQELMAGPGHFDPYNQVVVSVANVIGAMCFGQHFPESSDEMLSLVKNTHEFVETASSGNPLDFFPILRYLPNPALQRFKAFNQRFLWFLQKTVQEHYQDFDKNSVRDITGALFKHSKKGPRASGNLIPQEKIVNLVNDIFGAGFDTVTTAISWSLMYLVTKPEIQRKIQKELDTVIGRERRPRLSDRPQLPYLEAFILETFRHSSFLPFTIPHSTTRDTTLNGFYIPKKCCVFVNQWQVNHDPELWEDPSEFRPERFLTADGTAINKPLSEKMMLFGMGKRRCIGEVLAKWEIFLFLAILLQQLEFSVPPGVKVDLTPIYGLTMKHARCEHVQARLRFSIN

The results in this text go back to ChEMBL document CHEMBL1201862, “PubChem BioAssay data set” (2004).

Active and inactive are the calls of the source. Some results are limits rather than exact numbers.

Sequence of Cytochrome P450 2C19 (P33261 whole entry): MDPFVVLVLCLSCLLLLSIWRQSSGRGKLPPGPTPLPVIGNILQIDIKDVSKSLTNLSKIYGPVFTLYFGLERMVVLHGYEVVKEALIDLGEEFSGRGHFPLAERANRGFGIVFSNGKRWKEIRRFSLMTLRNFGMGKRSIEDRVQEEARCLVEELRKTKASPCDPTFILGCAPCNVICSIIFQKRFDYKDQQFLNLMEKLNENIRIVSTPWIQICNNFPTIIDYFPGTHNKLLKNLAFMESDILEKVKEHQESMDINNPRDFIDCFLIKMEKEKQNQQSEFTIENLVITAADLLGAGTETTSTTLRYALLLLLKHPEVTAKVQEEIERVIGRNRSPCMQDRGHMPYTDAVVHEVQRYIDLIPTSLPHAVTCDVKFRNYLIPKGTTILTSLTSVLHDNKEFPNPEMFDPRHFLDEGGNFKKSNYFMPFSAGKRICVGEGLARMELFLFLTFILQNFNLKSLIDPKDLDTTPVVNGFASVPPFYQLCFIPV

A word on the EC50: it is the midpoint of the concentration-response curve. Take `COc1ccc(C=O)cc1Cn1ccnc1C`: the EC50 in test [1] is reported as > 195 µM (not active).
Turning to `Cc1nc2c(-c3ccccc3)c(C)nn2c(O)c1Cc1ccccc1`, the values for the EC50 in test [2], in test [3] and in test [4] were 18.5 µM (active), > 50 µM (not active) and 9.56 µM (active), respectively.
In the case of `Cc1ccc(-c2cn(-c3ccccc3)c(S)n2)cc1C`, the EC50 in test [1] is on record as > 195 µM (not active).
Take `c1ccc2c(c1)CC1(CCCCC1)n1nnnc1-2`: the EC50 in test [1] was > 195 µM (not active).
Regarding `Cc1nn(C(C)C(=O)NC2C(=O)N3C(C(=O)O)=C(CSc4nnnn4C)CSC23)cc1Cl` (stereo unspecified), the EC50 in test [2] was 0.337 µM (active); in test [4] it was 0.112 µM (active).
Turning to `CCOC(=O)c1cccc(N2C(N)=NC(N)=NC2(C)C)c1`, the concentration for a half-maximal effect (EC50) is 0.63 µM (active) in test [2] and 0.127 µM (active) in test [4].
A word on the CC50: it is the concentration at which the toxic effect on the cells reaches its halfway point. In the case of `CCc1ccc(Nc2n[n+](-c3ccccc3)c(-c3ccc(OC)c(Br)c3)s2)cc1`, the CC50 in test [5] is 31.3 µM (active).
For `CCOC(=O)N1CCN(C(=O)c2ccc3c(=O)n(CCC4=CCCCC4)c(=S)[nH]c3c2)CC1`, the half-maximal effective concentration (EC50) in test [2] was > 150 µM (not active); in test [3] it was 29.8 µM (active).
On to `C=CCn1c(NCc2ccc(OC)cc2O)nc2ccccc21`, for which the CC50 in test [5] was 37.8 µM (active).
As to `Cn1c(=O)c2c3c(sc2n2c(SCc4ccccc4)nnc12)CCCC3`, the CC50 in test [5] is > 50 µM (active).
`COc1cc(Cc2cc(N)nc(N)n2)cc(OC)c1OC`: the EC50 is > 150 µM (not active) in test [2], > 150 µM (not active) in test [3] and 3.11 µM (active) in test [4].
Take `COc1cccc(NC(=S)N(CCc2c(C)[nH]c3ccc(C)cc23)Cc2cccs2)c1`: in test [5], the CC50 was 13.4 µM (active).
As to `O=C(NCCC1CCCCN1S(=O)(=O)c1ccc(F)cc1)C(=O)Nc1ccccc1F` (stereo unspecified), the half-maximal effective concentration (EC50) in test [1] was > 195 µM (not active).
Take `Cc1ccc(N(CC(=O)NCCSCc2ccco2)S(C)(=O)=O)cc1`: the EC50 in test [1] is > 195 µM (not active).
As for `CC12CC(c3ccccc3O1)C(C(=O)NCc1ccccc1)C(=O)N2` (stereo unspecified), the EC50 in test [1] was > 195 µM (not active).
For the compound `Cc1cccc(NC(=O)c2ccc(S(=O)(=O)N(C)CC3CCCO3)cc2)c1C` (stereo unspecified), the concentration giving a half-maximal response (EC50) in test [2], in test [3] and in test [4] was > 150 µM (not active) in each case.
In the case of `O=C(COc1ccc(Cl)cc1)NCc1nnc2c3ccccc3c(-c3ccccc3)nn12`, the CC50 in test [5] was 17.9 µM (active).
Consider `CCn1cnc2sc(C(=O)Oc3cccc(C)c3)c(C)c2c1=O`, for which the EC50 in test [2] is 28.8 µM (active); in test [3], > 150 µM (not active); in test [4] it was 11.8 µM (active).
For `FC(F)(F)c1ccccc1/C=N/n1c(S)nnc1C1CCCCC1`, the EC50 in test [2] is 15.7 µM (active); in test [3] it was 32.4 µM (inconclusive); in test [4], 8.41 µM (active).
As for `COc1ccccc1Nc1ncnc2c1c(C)c(C)n2CCO`, the CC50 in test [5] was > 50 µM (active).
`O=S(=O)(c1ccc2c(c1)OCCO2)N1CCC(c2nc(O)c3nnn(Cc4ccc(F)cc4)c3n2)CC1`: in test [5], the CC50 was 37.6 µM (active).
As to `C[C@H](CCC(=O)NCC(=O)O)[C@H]1CC[C@H]2[C@@H]3[C@H](O)C[C@@H]4C[C@H](O)CC[C@]4(C)[C@H]3C[C@H](O)[C@]12C` [GLYCOCHOLIC ACID], the EC50 in test [2], in test [3] and in test [4] was > 150 µM (not active) in each case.
Consider `CC(=O)c1cccc(NC(=O)CN2C(=O)c3ccccc3C2=O)c1`, for which, in test [1], the EC50 is > 195 µM (not active).
As for `c1ccc(-n2nnnc2Oc2ccc(-c3nnco3)cc2)cc1`, the EC50 in test [1] is given as > 195 µM (not active).
As for `NCCCC[C@@H](C(=O)N1CCNCC1)n1cc([C@@H](N)CO)nn1`, in test [1], the EC50 is recorded as > 195 µM (not active).
Usually AC50 stands for the concentration at which the activity in the assay is half-maximal. `CC1(O)CC(=O)N(c2ccccc2)O1` (stereo unspecified): the figures for the AC50 in test [6], in test [7] and in test [8] were 17.8 µM (inconclusive), 10 µM (inconclusive) and 22.4 µM (inconclusive), respectively.
Turning to `CC1(C)Cc2nc3sc4c(OCc5ccccc5)ncnc4c3cc2CO1`, the values for the EC50 in test [2], in test [3] and in test [4] were 11 µM (active), > 150 µM (not active) and 4.04 µM (active), respectively.
Consider `CCn1c(SCC(=O)Nc2oc(C)c3c(C)nnc(O)c23)nc2sc(C)c(C)c2c1=O`, for which the EC50 in test [1] is given as > 195 µM (not active).
Take `CC1(C)C[C@H](O)[C@]2(CO)CC[C@]3(C)C(=CCC4[C@@]5(C)CC[C@H](O)C(C)(C)C5CC[C@]43C)[C@@H]2C1` (stereo partly specified): the 50% cytotoxic concentration (CC50) in test [5] was 36.2 µM (active).
Take `COc1ccccc1N1CC(C)C(=O)NC1=S` (stereo unspecified): the EC50 in test [1] is on record as > 195 µM (not active).
As for `CCN(CC(=O)NCC1CCCO1)S(=O)(=O)c1ccc(Cl)cc1` (stereo unspecified), the EC50 in test [2], in test [3] and in test [4] was > 150 µM (not active) in each case.
In the case of `COc1ccc(CN2C(=O)c3ccccc3C(/C=N\OCc3ccc(C)cc3)C2=O)cc1` (stereo unspecified), the EC50 in test [2] was 11.2 µM (active); in test [3] it was > 150 µM (not active); in test [4], 1.67 µM (active).
As for `CCOC(=O)c1ccc(/N=c2\sc(C(=O)OC)cc(=O)n2Cc2ccc3c(c2)OCO3)cc1`, the CC50 in test [5] was 20.8 µM (active).
Regarding `Cc1cc(C)cc(NC(=O)N2CCN(Cc3ccc4c(c3)OCO4)CC2)c1`, the EC50 in test [1] was > 195 µM (not active).
In the case of `COC(=O)C1=C(C(=O)OC)[C@@H]2N(C)c3ccccc3[C@@]23C[C@@H](C(=O)OC)N(C(=O)CC(C)C)C3=N1`, the EC50 in test [1] was > 195 µM (not active).
In the case of `Fc1ccc2nc(Nc3nc4cc5c(cc4s3)OCO5)sc2c1`, the EC50 is 3.02 µM (active) in test [2] and 7.04 µM (active) in test [4].
On to `COc1cc2c3c(c1)/C(=C1/SC(=S)NC1=O)C(=O)N3C(C)(C)C=C2C`, for which the EC50 in test [2] is 8.28 µM (active); in test [3] it was 1.72 µM (active); in test [4], 2.63 µM (active).
In the case of `COCC(C)NC(=O)c1ccc2nc(-c3ccccc3)c(-c3ccccc3)nc2c1` (stereo unspecified), the EC50 in test [1] is on record as > 195 µM (not active).
For the compound `CC(Sc1nc2cc([N+](=O)[O-])ccc2n1-c1cccc(C(F)(F)F)c1)C(=O)NC(N)=O` (stereo unspecified), the EC50 in test [2], in test [3] and in test [4] was > 150 µM (not active) throughout.
Consider `CN1C(=O)/C(=C/c2ccc(C(F)(F)F)cc2)Sc2ccc(C(=O)N3CCN(c4ccccn4)CC3)cc21`, for which the EC50 was 12.5 µM (active) in test [2], > 150 µM (not active) in test [3] and 1.53 µM (active) in test [4].
Consider `CCOC(=O)Cn1c(CN2CCN(c3cccc(Cl)c3)CC2)nc2c1c(=O)[nH]c(=O)n2C`, for which the concentration for a half-maximal effect (EC50) in test [1] is reported as > 195 µM (not active).
As to `Cc1c(C(=O)OCC(=O)N2CC(C)OC(C)C2)oc2ccc(Br)cc12` (stereo unspecified), the EC50 in test [1] is listed as > 195 µM (not active).
For the compound `Oc1ccccc1CNc1ccc(OC(F)(F)F)cc1`, the EC50 in test [1] is on record as > 195 µM (not active).
As for `Cc1ccccc1Nc1nc(N)nc(CN(C)Cc2ccccc2Cl)n1`, the EC50 in test [2], in test [3] and in test [4] was > 150 µM (not active) in each case.
